# Test results from patent US12391799B2, “Peptoid polymers and methods of use” (X-Therma, Inc., priority 2017, dated 2025).
# Numbered stars: 1 amine (or outer) side, 2 acyl side, 3 side chain; on linkers, the order of the positions; unused ones are H or OH. Square brackets hold non-standard residues; d marks the D form. Peptide text beside a SMILES is read from it. X1 = CC(O)CN(CC(=O)[*:2])[*:1]; N(iPr)Gly = CC(C)NCC(=O)O; NBuGly = CCCCNCC(=O)O; Nleu = CC(C)CNCC(=O)O
# Legend:
# [1] = Crystallographic x-ray diffraction (XRD) ice crystal formation assay; format: physicochemical; conditions: 1 and 5 mg/mL peptoid, EG 15-30% (v/v)
# Method: In order to increase the throughput of library analysis, a crystallographic x-ray diffraction (XRD) technique was used to evaluate ice crystal formation. For these experiments, the compounds named “Compound 2,” “Compound 8,” “Compound 10,” “Compound 11,” “Compound 12,” “Compound 13,” and “Compound 58” were tested. Compound 58 is similar to Compound 12, except that an arginine amino acid has been appended to the N-terminal end.
# For these experiments, EG concentrations between 15% and 30% (v/v) were used. Typically, EG, DMSO, and other cryoprotectants are used during XRD sample analysis at concentrations of 35-40% (v/v) to vitrify solutions and avoid diffraction interference from ice crystals. Concentrations of 1 and 5 mg/mL of the peptoid and peptoid-peptide compounds were used. FIGS. 3A, 3B, and 3C illustrate exemplary XRD data under conditions of complete vitrification, partial vitrification with the presence of cubic ice, and freezing ([…]), respectively. FIG. 3D provides ice rings scores for a variety of EG concentrations and two concentrations of Compounds 2, 8, and 12.
# “IceRing1” and “IceRing2” refer to ice formation scores, which range between 0 (no ice formation) and 15 (large ice formation).
# [2] = Vitrification screening assay (critical EG concentration); format: physicochemical; conditions: for Critical Ethylene Glycol Concentration: lowest EG for complete vitrification of 20 μL sample, 5 mg/mL peptoid in formulation, liquid nitrogen immersion; for EG required to permit vitrification: 20 μL sample, 5 mg/mL peptoid, formulation without peptoid needs 20% or more EG
# Method: As another means of increasing the throughput of library analysis, a vitrification screening assay was performed to evaluate anti-icing efficacy. For these experiments the compounds named “Compound 11,” “Compound 12,” “Compound 25,” Compound 26,” “Compound 27,” “Compound 28,” “Compound 60,” “Compound 62,” “Compound 63,” “Compound 64,” “Compound 69,” “Compound 70,” “Compound 71,” “Compound 72,” “Compound 73,” “Compound 74,” “Compound 75,” “Compound 76,” “Compound 77,” “Compound 78,” “Compound 81,” “Compound 82,” “Compound 83,” “Compound 84,” and “Compound 85” were tested.
# For these experiments, 20 μL samples were flash frozen by liquid immersion in liquid nitrogen. Ethylene glycol (EG) concentrations between 5% and 25% (v/v) were used. A concentration of 5 mg/mL of peptoid polymer compounds were used in formulation. Table 12 lists the lowest concentration of EG necessary to bring about complete vitrification of a 20 μL sample with peptoid polymer in formulation, referred to as the “critical EG concentration.” A sample of formulation without the presence of a peptoid polymer was only able to bring about vitrification at 20% or more EG. Peptoid polymers of interest were able to bring about vitrification within formulas containing EG when the concentration of EG was lower than 20%.
Structure (SMILES),reduction of necessary EG concentration while preventing ice formation (XRD ice ring scores) [1],Critical Ethylene Glycol Concentration [2],EG required to permit vitrification [2]
"CCC(C)NCC(=O)N(CC(=O)N(CC(=O)N(CC(=O)N(CC(=O)N(CC(=O)N(CC(=O)N(CC(=O)N(CC(=O)N(CC(N)=O)CC(C)O)C(C)CC)C(C)CC)C(C)CC)CC(C)O)CC(C)O)CC(C)O)C(C)CC)C(C)CC (stereo not drawn) [Compound 2, Nsb-Nsb-Nsb-Nhp-Nhp-Nhp-Nsb-Nsb-Nsb-Nhp]",significantly reduced necessary EG concentrations while preventing ice formation,–,–
"CC(C)CNCC(=O)N(CC(=O)N(CC(=O)N(CC(=O)N(CC(=O)N(CC(=O)N(CC(=O)N(CC(=O)N(CC(=O)N(CC(N)=O)CC(C)C)CC(C)C)CC(C)O)CC(C)O)CC(C)C)CC(C)C)CC(C)O)CC(C)O)CC(C)C (stereo not drawn) [Compound 25, Nib-Nib-Nhp-Nhp-Nib-Nib-Nhp-Nhp-Nib-Nib] (H-[Nleu][Nleu][X1][X1][Nleu][Nleu][X1][X1][Nleu][Nleu]-NH2)",–,12.5% (ν/ν),–
"CCCCNCC(=O)N(CCCC)CC(=O)N(CC(=O)N(CC(=O)N(CCCC)CC(=O)N(CCCC)CC(=O)N(CC(=O)N(CC(=O)N(CCCC)CC(=O)N(CCCC)CC(N)=O)CC(C)O)CC(C)O)CC(C)O)CC(C)O (stereo not drawn) [Compound 26, Nbu-Nbu-Nhp-Nhp-Nbu-Nbu-Nhp-Nhp-Nbu-Nbu] (H-[NBuGly][NBuGly][X1][X1][NBuGly][NBuGly][X1][X1][NBuGly][NBuGly]-NH2)",–,15.0% (ν/ν),–
"CC(O)CN(CC(=O)N(CC(=O)N(CC(=O)N(CC(=O)N(CC(=O)N(CC(=O)N(CC(=O)N(CC(N)=O)C(C)C)C(C)C)CC(C)O)CC(C)O)C(C)C)C(C)C)CC(C)O)C(=O)CN(C(=O)CNC(C)C)C(C)C (stereo not drawn) [Compound 28, Nip-Nip-Nhp-Nhp-Nip-Nip-Nhp-Nhp-Nip-Nip] (H-[N(iPr)Gly][N(iPr)Gly][X1][X1][N(iPr)Gly][N(iPr)Gly][X1][X1][N(iPr)Gly][N(iPr)Gly]-NH2)",–,15.0% (ν/ν),–
"CCC(C)N(CC(=O)N(CC(=O)N(CC(=O)N(CC(=O)N(CC(=O)N(CC(=O)N(CC(=O)N(CC(=O)N(CC(=O)N(CC(N)=O)C(C)CC)C(C)CC)CC(C)O)CC(C)O)C(C)CC)C(C)CC)CC(C)O)CC(C)O)C(C)CC)C(C)=O (stereo not drawn) [Compound 60, Ac-Nsb-Nsb-Nhp-Nhp-Nsb-Nsb-Nhp-Nhp-Nsb-Nsb]",–,12.5% (ν/ν),required significantly less EG in order to permit vitrification
"CCC(C)NCC(=O)N(CC(=O)N(CC(=O)N(CC(=O)N(CC(=O)N(CC(=O)N(CC(=O)N(CC(=O)N(CC(=O)N(CC(N)=O)C(C)CC)C(C)CC)CC1CCCO1)CC1CCCO1)C(C)CC)C(C)CC)CC1CCCO1)CC1CCCO1)C(C)CC (stereo not drawn) [Compound 63, Nsb-Nsb-Ntf-Ntf-Nsb-Nsb-Ntf-Ntf-Nsb-Nsb]",–,15.0% (ν/ν),–
"CCC(C)NCC(=O)N(CC(=O)N(CC(=O)N(CC(=O)N(CC(=O)N(CC(=O)N(CC(=O)N(CC(=O)N(CC(=O)N(CC(N)=O)C(C)CC)C(C)CC)C(C)CC)CC(C)O)C(C)CC)C(C)CC)CC(C)O)CC(C)O)C(C)CC (stereo not drawn) [Compound 69, Nsb-Nsb-Nhp-Nhp-Nsb-Nsb-Nhp-Nsb-Nsb-Nsb]",–,15.0% (ν/ν),–
"CCC(C)NCC(=O)N(CC(=O)N(CC(=O)N(CC(=O)N(CC(=O)N(CC(=O)N(CC(=O)N(CC(=O)N(CC(=O)N(CC(N)=O)C(C)CC)C(C)CC)CC(C)O)C(C)CC)C(C)CC)C(C)CC)CC(C)O)CC(C)O)C(C)CC (stereo not drawn) [Compound 70, Nsb-Nsb-Nhp-Nhp-Nsb-Nsb-Nsb-Nhp-Nsb-Nsb]",–,15.0% (ν/ν),–
"CCC(C)NCC(=O)N(CC(=O)N(CC(=O)N(CC(=O)N(CC(=O)N(CC(=O)N(CC(=O)N(CC(=O)N(CC(=O)N(CC(N)=O)C(C)CC)C(C)CC)CC(C)O)CC(C)O)C(C)CC)C(C)CC)C(C)CC)CC(C)O)C(C)CC (stereo not drawn) [Compound 71, Nsb-Nsb-Nhp-Nsb-Nsb-Nsb-Nhp-Nhp-Nsb-Nsb]",–,17.5% (ν/ν),–
"CCC(C)NCC(=O)N(CC(=O)N(CC(=O)N(CC(=O)N(CC(=O)N(CC(=O)N(CC(=O)N(CC(=O)N(CC(=O)N(CC(N)=O)C(C)CC)C(C)CC)CC(C)O)CC(C)O)C(C)CC)C(C)CC)CC(C)O)C(C)CC)C(C)CC (stereo not drawn) [Compound 72, Nsb-Nsb-Nsb-Nhp-Nsb-Nsb-Nhp-Nhp-Nsb-Nsb]",–,17.5% (ν/ν),–
"CCC(C)NCC(=O)N(CC(=O)N(CC(=O)N(CC(=O)N(CC(=O)N(CC(=O)N(CC(=O)N(CC(=O)N(CC(=O)N(CC(N)=O)C(C)CC)C(C)CC)Cc1ccco1)Cc1ccco1)C(C)CC)C(C)CC)Cc1ccco1)Cc1ccco1)C(C)CC (stereo not drawn) [Compound 73, Nsb-Nsb-Nff-Nff-Nsb-Nsb-Nff-Nff-Nsb-Nsb]",–,20.0% (ν/ν),–
"CC[C@@H](C)NCC(=O)N(CC(=O)N(CC(=O)N(CC(=O)N(CC(=O)N(CC(=O)N(CC(=O)N(CC(=O)N(CC(=O)N(CC(N)=O)[C@H](C)CC)[C@H](C)CC)C[C@@H](C)O)C[C@@H](C)O)[C@H](C)CC)[C@H](C)CC)C[C@@H](C)O)C[C@@H](C)O)[C@H](C)CC [Compound 77, Nbr-Nbr-Nrh-Nrh-Nbr-Nbr-Nrh-Nrh-Nbr-Nbr]",–,15.0% (ν/ν),–
"CC[C@@H](C)NCC(=O)N(CC(=O)N(CC(=O)N(CC(=O)N(CC(=O)N(CC(=O)N(CC(=O)N(CC(=O)N(CC(=O)N(CC(N)=O)[C@H](C)CC)[C@H](C)CC)C[C@H](C)O)C[C@H](C)O)[C@H](C)CC)[C@H](C)CC)C[C@H](C)O)C[C@H](C)O)[C@H](C)CC [Compound 78, Nbr-Nbr-Nsh-Nsh-Nbr-Nbr-Nsh-Nsh-Nbr-Nbr]",–,15.0% (ν/ν),–
"CCC(C)NCC(=O)N(CC(=O)N(CC(=O)N(CC(=O)N(CC(=O)N(CC(N)=O)C(C)CC)C(C)CC)CC(C)O)CC(C)O)C(C)CC (stereo not drawn) [Compound 81, Nsb-Nsb-Nhp-Nhp-Nsb-Nsb]",–,15.0% (ν/ν),–
"CCC(C)N(CC(N)=O)C(=O)CN(C(=O)CN(CC(C)O)C(=O)CN(CC(C)O)C(=O)CN(C(=O)CN(C(=O)CN(CC(C)O)C(=O)CNCC(C)O)C(C)CC)C(C)CC)C(C)CC (stereo not drawn) [Compound 82, Nhp-Nhp-Nsb-Nsb-Nhp-Nhp-Nsb-Nsb]",–,12.5% (ν/ν),required significantly less EG in order to permit vitrification
"CCC(C)NCC(=O)N(CC(=O)N(CC(=O)N(CC(=O)N(CC(=O)N(CC(=O)N(CC(=O)N(CC(=O)N(CC(=O)N(CC(=O)N(CC(=O)N(CC(=O)N(CC(=O)N(CC(N)=O)C(C)CC)C(C)CC)CC(C)O)CC(C)O)C(C)CC)C(C)CC)CC(C)O)CC(C)O)C(C)CC)C(C)CC)CC(C)O)CC(C)O)C(C)CC (stereo not drawn) [Compound 83, Nsb-Nsb-Nhp-Nhp-Nsb-Nsb-Nhp-Nhp-Nsb-Nsb-Nhp-Nhp-Nsb-Nsb]",–,10.0% (ν/ν),required significantly less EG in order to permit vitrification
"CCC(C)NCC(=O)N(CC(=O)N(CC(=O)N(CC(=O)N(CC(=O)N(CC(=O)N(CC(=O)N(CC(=O)N(CC(=O)N(CC(=O)N(CC(=O)N(CC(=O)N(CC(=O)N(CC(=O)N(CC(=O)N(CC(=O)N(CC(=O)N(CC(N)=O)C(C)CC)C(C)CC)CC(C)O)CC(C)O)C(C)CC)C(C)CC)CC(C)O)CC(C)O)C(C)CC)C(C)CC)CC(C)O)CC(C)O)C(C)CC)C(C)CC)CC(C)O)CC(C)O)C(C)CC (stereo not drawn) [Compound 84, Nsb-Nsb-Nhp-Nhp-Nsb-Nsb-Nhp-Nhp-Nsb-Nsb-Nhp-Nhp-Nsb-Nsb-Nhp-Nhp-Nsb-Nsb]",–,12.5% (ν/ν),required significantly less EG in order to permit vitrification
"CCC(C)NCC(=O)N(CC(=O)N(CC(=O)N(CC(=O)N(CC(=O)N(CC(=O)N(CC(=O)N(CC(=O)N(CC(=O)N(CC(=O)N(CC(=O)N(CC(=O)N(CC(=O)N(CC(=O)N(CC(=O)N(CC(=O)N(CC(=O)N(CC(=O)N(CC(=O)N(CC(=O)N(CC(=O)N(CC(N)=O)C(C)CC)C(C)CC)CC(C)O)CC(C)O)C(C)CC)C(C)CC)CC(C)O)CC(C)O)C(C)CC)C(C)CC)CC(C)O)CC(C)O)C(C)CC)C(C)CC)CC(C)O)CC(C)O)C(C)CC)C(C)CC)CC(C)O)CC(C)O)C(C)CC (stereo not drawn) [Compound 85, Nsb-Nsb-Nhp-Nhp-Nsb-Nsb-Nhp-Nhp-Nsb-Nsb-Nhp-Nhp-Nsb-Nsb-Nhp-Nhp-Nsb-Nsb-Nhp-Nhp-Nsb-Nsb]",–,10.0% (ν/ν),required significantly less EG in order to permit vitrification
